Here are results for six compounds from patent US8603968B2, “Cyclic peptides comprising at least one aza-β3-aminoacyl residue and their uses” (Centre National de la Recherche Scientifique, priority 2007, dated 2013).

In one data set the test system is sheep erythrocytes. Kind of data set: Haemolytic activity on sheep erythrocytes. The following applies: at the doses tested, 1 hour at 37° C. It is filed as cell-based. The method, then: The haemolytic activity of the pseudopeptides is tested on sheep blood cells. The sheep erythrocytes are washed three times with a phosphate buffer saline [PBS buffer (pH 7.4)] by 5 minutes' centrifugation at 900 g and the final pellet is suspended in PBS. For the concentration of the erythrocyte solution, a concentration of erythrocytes corresponding to OD540 nm is established, and for the control well 100% haemolysis in the presence of 0.8 Triton X-100. The solutions of the different pseudopeptides diluted in water (100 μL) are arranged in a 96-well plate. 50 μL, of PBS 2× buffer solution then 50 μL of sheep erythrocyte solution is added to these solutions in order to produce a final volume of 200 μL. The suspensions obtained are incubated for 1 hour at 37° C. The samples are then centrifuged at 500 g for 5 min. 130 μL of supernatant of each sample is transferred to a new 96-well plate. The release of haemoglobin is quantified by measuring the absorbance at 540 nm of the supernatant by means of a microplate reader. The controls corresponding to the absence of haemolysis (white) and 100% haemolysis involve, respectively, the addition of 100 μL of PBS buffer and 100 μL of a 2% Triton X-100 solution to the wells containing 100 μL of saline erythrocyte solution (50 μL of PBS 2× and 50 μL of blood cell solution). Each measurement is carried out in triplicate.

Data set [1] relates to rabbit erythrocytes. The following applies: comparison peptide alternating L and D amino acids; cited from earlier work.
The subject of data set [2] is rabbit erythrocytes. Kind of data set: Haemolytic activity on rabbit erythrocytes. It is filed as cell-based. The method, then: The haemolytic activity of the pseudopeptides is tested on rabbit blood cells. Fresh rabbit erythrocytes are washed three times with a phosphate buffer saline [PBS buffer (pH 7.4)] by centrifugation for 5 min at 900 g and the final pellet is suspended in PBS. The NafNaf pseudopeptide solutions diluted in PBS (90 μL) are arranged in a 96-well plate. 90 μL of 2% rabbit erythrocyte solution (v/v) is added to these solutions to give a final volume of 180 μL and a concentration of 1% (v/v) blood cells. The suspensions obtained are incubated for 1 hour at 37° C. The samples are then centrifuged at 500 g for 5 min. 100 μL of supernatant of each sample is transferred into a new 96-well plate. The release of the haemoglobin is quantified by measuring the absorbance at 415 nm of the supernatant using a microplate reader. The controls corresponding to the absence of haemolysis (white) and to a 100% haemolysis consist, respectively, of the addition of 90 μL of PBS buffer and 90 μL of a 2% solution of Triton X-100 to the 90 μL of 2% blood cell solution. Each measurement is carried out in triplicate.

The nature of data set [3]: In vitro cytotoxicity (MTT). The class given is cell-based, hamster. To be noted: hamster, CHO-K1 cells; read-out: lethal dose for 50% of the cells (LD50). How it is done:
(§1) The effects of the different cyclic pseudopeptides on cell growth are evaluated in sterile 96-well plates. The cells are seeded at 5.10^5 cells per mL of culture medium (100 μL per well). The different pseudopeptides (10 μL per well) diluted in a saline solution are added at the time of seeding at the appropriate concentration (from 1 μg/mL to 1 mg/mL). The incubations are carried out at 37° C. under a humidified atmosphere containing 5% CO2 for 24 or 48 hours.
(§2) After exposure to the compounds, the cell growth is assessed by measuring the formation of formazan from 3-(4,5-dimethylthiazol-2-yl)-2,5-diphenyltetrazolium (MTT). The absorbance at 540 nm is measured by a Titertek Multiscan MCC/340 microplate reader. Each measurement is carried out in triplicate.

The subject of the next data set is hamster cells (CHO-K1). The data set can be described thus: In vitro cytotoxicity (MTT). The class given is cell-based. To be noted: at 10 μg/mL. How it is done:
as §1, §2

For data set [4], the system named is mouse cell line ascites 302-sp. The data set can be described thus: In vitro cytotoxicity (MTT). It is filed as cell-based. The method, then:
as §1, §2

For another data set, the system named is Streptococcus aureus. The data set can be described thus: Antibacterial activity in poor medium enriched with beef extract PBB (MIC, MBC). The class given is cell-based. To be noted: increasing doses (FIG. 3). How it is done: (§3) The tests were carried out on Gram-negative bacterial strains of Group 2 (pathogens): Escherichia coli, Salmonella thyphimurium, Pseudomonas aeruginosa, Klebsiella pneumonie and on Gram-positive strains: Bacillus megaterium (group 1) and […] (group 2).
(§4) The bacteria are incubated in a PB poor medium in the case of the bacteria: Escherichia coli, Pseudomonas aeruginosa, Klebsiella pneumoniae, Bacillus megaterium and in a poor medium enriched with beef extract PBB in the case of two other bacteria: […] and Salmonella thyphimurium with increasing concentrations of peptides or analogues ranging from 1 to 320 μg/ml. This test is carried out in 96-well microplates. After incubation for 18 hours at 30° C. or 37° C., the optical density of the microplates is read at 595 nm in order to evaluate the bacterial growth and determine the minimum inhibitory concentration (MIC) for each molecule tested. Each measurement is performed in triplicate.
(§5) Moreover, the minimum bactericidal concentration (MBC) is determined by plating the contents of the wells where there is an absence of bacterial growth on dishes containing rich media (Luria broth or (LB) or Brain Heart Infusion (BHi). The MBC corresponds to the concentration at which no bacterial colony is detected after incubation for 24 hours at 30 or 37° C.

For the next data set, the system named is Salmonella thyphimurium. Kind of data set: Antibacterial activity in poor medium enriched with beef extract PBB. The class given is cell-based. To be noted: increasing doses (FIG. 4). The method, then: as §3, §4, §5
Data set [5] has as its system Gram-negative bacteria (E. coli to A. caviae). Kind of data set: Antibacterial activity in TSB rich medium (MIC), Gram-negative bacteria. It is filed as cell-based. The following applies: 48 hours, at the concentrations tested (0.78-100 μM). How it is done:
The tests were carried out on Gram-negative bacterial strains: Escherichia coli ATCC 25922, Salmonella enterica ATCC 13076, Pseudomonas aeruginosa ATCC 27853, Klebsiella oxytoca CIP 7932, Enterobacter aerogenes ATCC 13048 and Aeromonas caviae ATCC 15468 and on Gram-positive strains: Staphylococcus aureus ATCC 25923, Enterococcus faecalis CIP 186, Streptococcus equinus ATCC 5623, Listeria monocytogenes SOR 100, Bacillus megaterium ATCC 10778, Lactococcus gaviae ATCC 43921, Micrococcus luteus ATCC 10240.
The bacteria (10^5 CFU/mL) are incubated in a TSB (Tryptic Soy Broth) rich medium with increasing concentrations of cyclopseudopeptides (0.78, 3.12, 6.25, 12.5, 25, 50, 100 μM). This test is carried out in 96-well microplates. After incubation for 48 hours at 20° C. or 37° C., the optical density of the microplates is read at 595 nm in order to evaluate the bacterial growth and determine the minimum inhibitory concentration (MIC) for each molecule tested. Each measurement is carried out in triplicate.

Converted amounts (≈) assume the structure as drawn.

As to `N=C(N)NCCC[C@@H]1NC(=O)CN(CC2CCCCC2)NC(=O)[C@H](Cc2c[nH]c3ccccc23)NC(=O)CN(Cc2ccc(F)cc2)NC(=O)[C@H](CC2CCCCC2)NC(=O)CN(CCCCN)NC1=O` [FluoKil, c[-Arg-azaβ^3Lys-Cha-azaβ^3(4)Fpa-Trp-azaβ^3Cha-]], in the data set on sheep erythrocytes, the haemolytic activity entry is listed as “no significant haemolytic activity”.

Regarding “[-(D)Lys-(L)Lys-(D)Leu-(L)Trp-(D)Leu-(L)Trp-]”, the “concentration at which haemolytic” value in the data set on rabbit erythrocytes [1] was 80 µg/mL.

In the case of `CC(C)C[C@@H]1NC(=O)CN(Cc2ccc(F)c3ccccc23)NC(=O)[C@H](CC(C)C)NC(=O)CN(Cc2cccc3ccccc23)NC(=O)[C@H](CCCCN)NC(=O)CN(CCCCN)NC1=O` [4Fluo1Naf, c[-Leu-azaβ^3Lys-Lys-azaβ^3(1)-Nal-Leu-azaβ^3(4F-1)Nal-]], the haemolytic activity entry in the data set with sheep erythrocytes is “no significant haemolytic activity”.

`CC(C)C[C@@H]1NC(=O)CN(Cc2cccc3ccccc23)NC(=O)[C@H](CC(C)C)NC(=O)CN(Cc2cccc3ccccc23)NC(=O)[C@H](CCCCN)NC(=O)CN(CCCCN)NC1=O` [NafNaf, c[-Leu-azaβ^3Lys-Lys-azaβ^3(1)Nal-Leu-azaβ^3(1)Nal-]]: the “action on the erythrocytes” value in the data set on rabbit erythrocytes [2] (at 20 μg/mL) is recorded as “no action”. In addition, the haemolytic activity entry in the data set on rabbit erythrocytes [2] (at the concentrations at which it is bactericidal) is “no haemolytic activity”; in the data set with sheep erythrocytes it was “no significant haemolytic activity”. Besides, the CC50 in [3] was ~40 µg/mL (≈ 43.4 µM). Moreover, the cytotoxic effect entry with hamster cells (CHO-K1) is on record as “no cytotoxic effect”. Moreover, in data set [4] (ascites 302-sp, compared with hamster cells), the LD50 result is listed as “slightly lower”. The “effect on the cell viability” value in data set [4] (at 10 μg/mL) was “slight effect”.

Turning to `CC1(C)S[C@@H]2[C@H](NC(=O)[C@H](N)c3ccccc3)C(=O)N2[C@H]1C(=O)O` [Ampicillin], the “concentration at which active” value with Streptococcus aureus and in the data set on Salmonella thyphimurium was 1 µg/mL in each case.

Turning to `CCCCCCCCCCCCN1CC(=O)N[C@@H](Cc2c[nH]c3ccccc23)C(=O)NN(Cc2cccc3ccccc23)CC(=O)N[C@@H](CCCCN)C(=O)NN(CCCCN)CC(=O)N[C@@H](CC2CCCCC2)C(=O)N1` [Chado, c[-Lys-azaβ^3Lys-Cha-azaβ^3Amy-Trp-azaβ^3(1)Nal-]], the “activity on the Gram-negative bacteria” value in data set [5] was “no activity”.
